The results in this text go back to ChEMBL document CHEMBL5360586, “Purpurascenines A-C, Azepino-Indole Alkaloids from Cortinarius purpurascens: Isolation, Biosynthesis, and Activity Studies on the 5-HT2A Receptor” (J Nat Prod, 2023).

Active and inactive are the calls of the source. The rule behind the calls is not given here.

Assay [1] has as its system PC-3. Put plainly: Antiproliferative activity against human PC-3 cells assessed as inhibition of cell growth at 100 uM measured after 48 hrs by resazurin staining based analysis. The assay is classed as functional. Further details: scale not given: the % may be the effect or the level left.
Assay [2] concerns HCT-116. Kind of assay: Antiproliferative activity against human HCT-116 cells assessed as inhibition of cell growth measured after 48 hrs by resazurin staining based analysis. The assay is classed as functional. Conditions: HCT-116, 48 h. For orientation: The colour change of resazurin is a common sign of viable cells or microbes.
Assay [3] addresses T1, 5-hydroxytryptamine receptor 2A (Homo sapiens, UniProt P28223). Kind of assay: Agonist activity at N-terminal HA-tagged human 5HT2A receptor transfected in CHO-K1 cells co-expressing C-terminal EYFP assessed as maximal efficacy at 10^-11 M to 10^-5 M measured for 5.5 hrs by ONE-Glo reagent based luciferase assay relative to control. In kind it is functional, cell-based.
Assay [4] has as its system MCF7. Kind of assay: Antiproliferative activity against human MCF7 cells assessed as inhibition of cell growth measured after 48 hrs by resazurin staining based analysis. In kind it is functional. The conditions noted are these: MCF7, 48 h.
The test system of assay [5] is PC-3. Put plainly: Antiproliferative activity against human PC-3 cells assessed as inhibition of cell growth measured after 48 hrs by resazurin staining based analysis. The assay is classed as functional. Conditions: PC-3, 48 h.
Assay [6] addresses T1, 5-hydroxytryptamine receptor 2A. Kind of assay: Agonist activity at N-terminal HA-tagged human 5HT2A receptor transfected in CHO-K1 cells co-expressing C-terminal EYFP assessed as maximal efficacy at 10^-4 M measured for 5.5 hrs in presence of serotonin by ONE-Glo reagent based luciferase assay. The assay is classed as functional, cell-based. Conditions: filed as agonist, dose 0.0001 M.

Assay [7] shares this target. Put plainly: Agonist activity at N-terminal HA-tagged human 5HT2A receptor transfected in CHO-K1 cells co-expressing C-terminal EYFP measured for 5.5 hrs in presence of serotonin by ONE-Glo reagent based luciferase assay. The assay is classed as functional, cell-based.
Assay [8] has the same target. Put plainly: Agonist activity at N-terminal HA-tagged human 5HT2A receptor transfected in CHO-K1 cells co-expressing C-terminal EYFP measured for 5.5 hrs by ONE-Glo reagent based luciferase assay. The assay is classed as functional, cell-based.
Assay [9] deals with PC-3. Kind of assay: Antiproliferative activity against human PC-3 cells assessed as inhibition of cell growth upto 100 uM measured after 48 hrs by resazurin staining based analysis. The assay is classed as functional.
The subject of assay [10] is MCF7. Put plainly: Antiproliferative activity against human MCF7 cells assessed as inhibition of cell growth upto 100 uM measured after 48 hrs by resazurin staining based analysis. In kind it is functional.
Assay [11] relates to HCT-116. Put plainly: Antiproliferative activity against human HCT-116 cells assessed as inhibition of cell growth upto 100 uM measured after 48 hrs by resazurin staining based analysis. In kind it is functional.

Usually IC50 stands for the concentration needed to halve the response being measured. A word on the Emax: it is the size of the effect at its maximum, as opposed to the concentration needed. As a reminder, the EC50 is the concentration needed to bring the measured effect to its halfway point.

T1 sequence (P28223 whole entry): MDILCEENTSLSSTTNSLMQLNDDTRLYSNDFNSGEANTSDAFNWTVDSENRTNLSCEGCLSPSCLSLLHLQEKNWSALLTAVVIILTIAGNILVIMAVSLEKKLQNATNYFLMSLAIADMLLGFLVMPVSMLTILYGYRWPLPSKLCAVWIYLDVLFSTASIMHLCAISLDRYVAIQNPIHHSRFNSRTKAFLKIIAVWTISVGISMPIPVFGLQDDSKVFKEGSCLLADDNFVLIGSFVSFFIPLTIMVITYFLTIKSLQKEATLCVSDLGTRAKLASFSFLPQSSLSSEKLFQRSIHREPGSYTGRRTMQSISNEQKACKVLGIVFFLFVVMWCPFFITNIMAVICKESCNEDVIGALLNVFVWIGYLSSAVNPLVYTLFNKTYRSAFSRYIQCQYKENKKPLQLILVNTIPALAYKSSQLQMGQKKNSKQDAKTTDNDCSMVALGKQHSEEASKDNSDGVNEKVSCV

As for `CC1=N[C@H](C(=O)O)Cc2c[nH]c3c(O)ccc1c23`, the Activity in the assay on PC-3 [1] was around 30%. Besides, the IC50 in the assay on HCT-116 [2], in the assay with MCF7 [4] and in the assay on PC-3 [5] was above 100 µM in each case. The figures for the maximal effect (Emax) in assay [3] and in [6] were 22% and 52%, respectively. The EC50 is 0.0254 µM in assay [7] and above 10 µM in assay [8].
As for `NCCc1c[nH]c2ccc(O)cc12`, the outcome in the assay with PC-3 [9], in the assay on MCF7 [10] and in the assay on HCT-116 [11] was inactive.
